The source made the active and inactive calls. The calls are words filed in the database; no cut-off is given here.
Columns and labels:
[1] = molecular target: T1, Kynurenine--oxoglutarate transaminase 1 (Homo sapiens, UniProt Q16773); assay: (§1) Inhibition of human recombinant KAT1 expressed in Sf9 cells
T1 sequence (Q16773 whole entry): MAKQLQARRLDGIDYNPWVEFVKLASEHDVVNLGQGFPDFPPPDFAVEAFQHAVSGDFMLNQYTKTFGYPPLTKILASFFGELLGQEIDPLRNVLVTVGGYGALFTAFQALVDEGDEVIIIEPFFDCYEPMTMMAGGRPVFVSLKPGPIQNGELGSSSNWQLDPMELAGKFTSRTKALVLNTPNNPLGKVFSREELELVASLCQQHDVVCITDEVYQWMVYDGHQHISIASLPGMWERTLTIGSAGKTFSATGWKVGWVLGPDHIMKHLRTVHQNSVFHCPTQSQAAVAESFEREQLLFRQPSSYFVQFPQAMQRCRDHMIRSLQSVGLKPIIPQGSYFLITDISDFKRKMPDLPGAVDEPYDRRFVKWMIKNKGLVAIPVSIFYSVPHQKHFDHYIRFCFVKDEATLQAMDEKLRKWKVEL

[2] = molecular target: T2, Kynurenine--oxoglutarate transaminase 1 (Homo sapiens) (UniProt Q16773); assay: as §1
T2 sequence (whole entry): T1 sequence (Q16773 whole entry)

[3] = molecular target: T2, Kynurenine--oxoglutarate transaminase 1 (Homo sapiens); assay: Inhibition of human recombinant KAT1 expressed in Sf9 cells assessed as decrease in enzyme activity at 25 % ligand concentration; parameters: scale not given: the % may be the effect or the level left

| Compound | Activity [2] | also measured |
| --- | --- | --- |
| O=C(O)CCc1c[nH]c2ccccc12 [INDOLYLPROPIONIC ACID] |  | IC50 [1]: 140 µM |
| O=C(O)C(=O)Cc1c[nH]c2ccccc12 | Active |  |
| N[C@@H](Cc1c[nH]c2ccccc12)C(=O)O | Active |  |
| O=C(O)/C=C/c1c[nH]c2ccccc12 | Active |  |
| O=C(O)Cc1c[nH]c2ccccc12 | Active |  |
| OCC(O)CO |  | Activity [3]: 10% |
| O=C(O)C(O)Cc1c[nH]c2ccccc12 (racemic) |  | IC50 [1]: 220 µM |

Reference: ChEMBL document CHEMBL1138442, “Structural insight into the inhibition of human kynurenine aminotransferase I/glutamine transaminase K” (J Med Chem, 2009)
